In patent publication US20220073475A1, “5-MEMBERED HETEROARYL COMPOUNDS CONTAINING A HYDROXAMATE MOIETY AND THEIR USE” (UNIVERSITE DE LILLE, priority 2019, published 2022):

Legend:
TLM1 cells [1] = assay: UV-C radiation in combination with compound, ratio of % propidium iodide labelled cells; format: cell-based, canine
Experimental: (§1) Canine melanoma TLM-1 cells are maintained in DMEM medium supplemented with GlutaMAX™, 10% fetal bovine serum, 1× Hepes and 1% penicillin-streptomycin.
Plates were incubated at 37° C. and 5% CO2. […] 4 images per well were collected. Images were analyzed with Columbus software (Perkin Elmer). In this system we used predefined building blocks to measure different parameters on nuclei detected. We applied a threshold based on propidium iodide intensity in nuclei of controls to select and count dead cells. By dividing the number of dead cells by the number of nuclei detected we obtained the percentage of dead cells.

HeLa cells = assay: CFZ potency increase, ratio of CC50 of CFZ alone / with compound; format: cell-based, human; conditions: compound at 7.5 μM
Excerpt: Human HeLa cells (uterine cervical carcinoma) are maintained in DMEM medium supplemented with GlutaMAX™, 10% fetal bovine serum and 1% penicillin-streptomycin.
(§2) We developed a cell-based, high content assay allowing the rapid detection and quantification of apoptotic cells. Caspase-3/7 activity was detected in real-time using the NucView™ 488 Caspase-3 substrate (Biotium), where the caspase-3/7 substrate peptide sequence DEVD is attached to a nucleic acid dye. The NucView™ 488 reagent crosses the plasma membrane to enter the cytoplasm, where the dye is unable to bind to DNA and remains non-fluorescent. Once the substrate has been cleaved by activated caspase-3/7 in apoptotic cells, the high-affinity DNA dye is released and migrates to the cell nucleus to stain the nucleus with a bright green fluorescence. All cell nuclei were also labeled with Hoechst 33342 (Ozyme).
(§3) For HeLa and MCF7 cells, briefly, cells were seeded in 384-microtiter well plate (1500 HeLa cells or 5000 MCF7 cells in 40 μL full medium per well) and let to attach overnight. Then the compound of the invention and the RE stressor were transferred to the cell culture plate using an Echo555 liquid handler (Labcyte) and 30 μL medium containing NucView™ and Hoechst 33342 were added. Final NucView™ 488 and Hoechst 33342 concentrations were 1 μM and 20 ng/mL, respectively. DMSO content was maintained at 0.2%. The microplates were incubated at 37° C. and 5% CO2 in an automated LiCONiC STR240 UB cell incubator, and images were acquired at various times at 405 nm and 488 nm with the high-resolution automated confocal microscope INCell 6000 (GE). Four fields per well were read with the 20× objective in a confocal mode. The BioCel workstation was managed by VWorks automation control software (Agilent).
(§4) For all cells, Columbus software (Perkin) was used for image quantification and analysis. First, Hoechst 33342 staining was used for an automated detection of nuclei, in which the mean fluorescence intensity for NucView™ 488 was quantified. Inspection of control cells at initial time was used to set a threshold level of NucView™ 488 fluorescence to separate non apoptotic cells from apoptotic cells. Finally, for each well, the result was expressed as percentage of apoptotic cells in the total cell population. CC50 values were calculated from concentration-response curves by a nonlinear regression analysis at four parameters using Excel Fit or GraphPad Prim softwares.
(§5) Activity=(% of apoptotic cells with cytotoxic agent in combination with compound of the invention)/(% of apoptotic cells with cytotoxic agent alone). • Ratio of CC50: The CC50 of the cytotoxic agent was calculated in absence and in presence of a compound of the invention.
(§6) Activity=(CC50 of agent alone)/(CC50 of agent with compound). • Ratio of AUC. Activity=(Area of the dose-concentration curve of cytotoxic agent combined with one concentration of compound)/(Area of the dose-concentration curve of cytotoxic agent alone). (Lehar J. et al, 2008 (molecular systems biology 4:215)).

OPM2 cells = assay: as above; format: cell-based, human
Procedure, shortened: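 OPM2 cells (12,000/well, 0.2% DMSO) treated with compound plus carfilzomib, with NucView 488 caspase-3/7 substrate (1 μM) and Hoechst 33342, 37 °C; confocal imaging over time gives % apoptotic cells. CFZ CC50 from 4-parameter fits alone and with compound; activity = CC50 alone / CC50 with compound.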

TLM1 cells [2] = assay: X-ray radiation in combination with compound, propidium iodide dead cells, ratio of corrected AUC; format: cell-based, canine
Experimental: as §1
TLM-1 cells were seeded with the BioTek MicroFlo™ dispenser in μClear® black 384-well plates (Greiner) at the density of 20,000 cells/mL in 50 μL. Compounds for pre-treatment were added 2 h after the seeding, using an Echo 550 (Labcyte). The next day, cells were washed five times with 40 μL media without phenol red with a plate washer (Hydrospeed, Tecan). Cells were irradiated with 4, 6, 8, 12, 16, 20 and 24 Gray (Gy). […] This step was repeated every 72 h after radiation. Plates were incubated at 37° C. and 5% CO2. […] 4 images per well were collected. Images were analyzed with Columbus software (Perkin Elmer). In this system we used predefined building blocks to measure different parameters on nuclei detected. We applied a threshold based on propidium iodide intensity in nuclei of controls to select and count dead cells. By dividing the number of dead cells by the number of nuclei detected we obtained the percentage of dead cells. AUC were determined in one experiment with triplicate incubates on percentage of cells labelled with propidium iodide and were corrected by the percentage of cells labelled with propidium iodide at 0 Gy. Ratio of AUC corrected was determined as followed: Activity=(Area of the dose-concentration curve of cytotoxic agent combined with one concentration of compound corrected by the effect of the compound alone at 0Gy)/(Area of the dose-concentration curve of radiation alone corrected by the effect of the vehicle at 0Gy).

MCF7 cells = assay: CFZ potency increase, ratio of CC50 of CFZ alone / with compound; format: cell-based, human; conditions: MCF7, compound at 15 μM
Experimental: Human epithelial MCF7 cells (mammary gland adenocarcinoma) are maintained in EMEM medium supplemented with GlutaMAX™, 10% fetal bovine serum, 0.01 mg insulin and 1% penicillin-streptomycin.
as §2, §3, §4, §5, §6

[3] = OPM2, compound at 7.5 μM (Table 5)
[4] = OPM2, compound at 7.5 μM (Table 6)

Row | SMILES | melting point | Activity: ratio (CC50 of CFZ alone)/(CC50 of CFZ in combination with compound of the invention) (HeLa cells) | Activity: ratio (CC50 of CFZ alone)/(CC50 of CFZ in combination with compound of the invention) (OPM2 cells; [3]) | Activity: ratio (CC50 of CFZ alone)/(CC50 of CFZ in combination with compound of the invention) (OPM2 cells; [4]) | Activity: ratio (CC50 of CFZ alone)/(CC50 of CFZ in combination with compound of the invention) (MCF7 cells) | further results
1 | COc1ccc(C(=O)NCc2cn([C@@H](CC(=O)NO)Cc3ccc4ccccc4c3)nn2)cc1 [Compound 2] | 178.3 to 179.6 °C | – | – | – | – | –
2 | O=C(C[C@@H](Cc1ccc2ccccc2c1)n1cc(CNC(=O)c2ccc(C(F)(F)F)cc2)nn1)NO [Compound 4, N-[1-(R-2-Hydroxycarbamoyl-1-naphthalen-2-ylmethyl-ethyl)-1H-[1,2,3]triazol-4-ylmethyl]-4-trifluoromethyl-benzamide] | 198.9 to 200.4 °C | – | – | – | – | –
3 | Cc1cc(C(=O)NCc2cn([C@@H](CC(=O)NO)Cc3ccc4ccccc4c3)nn2)ccc1F [Compound 80, 4-fluoro-N-[[1-[(1R)-3-(hydroxyamino)-1-(2-naphthylmethyl)-3-oxo-propyl]triazol-4-yl]methyl]-3-methyl-benzamide] | – | 3.6 | 2.2 | 2.2 | 2.4 | Potency of UV-C radiations in combination with compound (in words) (TLM1 cells [1]; TLM1): increase the potency; Activity: ratio of percentage of cells labelling with propidium iodide, compound vs vehicle (TLM1 cells [1]; TLM1, 15 μM compound 24 h before and just after UV-C, 48 h after UV-C at 400 J/m^2, mean of three experiments): 2.3; Potency of X-ray radiations in combination with compound (in words) (TLM1 cells [2]; TLM1): increase the potency; Activity: ratio of corrected AUC of X-ray radiation in combination with compound / corrected AUC of X-ray radiation alone (TLM1 cells [2]; TLM1, compound at 30 μM): 2.7
4 | O=C(C[C@@H](Cc1ccc2ccccc2c1)n1cc(CNC(=O)c2ccc(F)c(Cl)c2)nn1)NO [Compound 62, 3-chloro-4-fluoro-N-[[1-[(1R)-3-(hydroxyamino)-1-(2-naphthylmethyl)-3-oxo-propyl]triazol-4-yl]methyl]benzamide] | – | 3.0 | 1.6 | 1.6 | 2.6 | –
5 | O=C(C[C@@H](Cc1ccc2ccccc2c1)n1nncc1CNC(=O)c1ccccc1)NO [Compound 12, (R)—N-[3-(1-Hydroxycarbamoylmethyl-2-naphthalen-2-yl-ethyl)-3H-[1,2,3]triazol-4-ylmethyl]-benzamide] | – | 2.4 | 1.2 | 1.2 | 1.6 | –
6 | O=C(C[C@@H](Cc1ccc(-c2ccccc2)cc1)n1cc(CNC(=O)c2ccc(F)cc2)nn1)NO [Compound 32, (R)—N-[1-(1-biphenyl-4-ylmethyl-2-hydroxycarbamoyl-ethyl)-1H-[1,2,3]triazol-4-ylmethyl]-4-fluoro-benzamide] | – | 4.5 | 1.9 | 1.9 | 2.7 | –
7 | O=C(NCc1cn([C@H](Cc2ccc3ccccc3c2)C(=O)NO)nn1)c1ccc(F)cc1 [Compound 43, (R)-4-Fluoro-N-[1-(1-hydroxycarbamoyl-2-naphthalen-2-yl-ethyl)-1H-[1,2,3]triazol-4-ylmethyl]-benzamide] | – | 2.6 | 1.7 | 1.7 | 2.6 | –
8 | O=C(C[C@@H](Cc1ccc2ccccc2c1)n1cc(CNC(=O)c2ccccc2)nn1)NO [Compound 1, N-[1-((R)-2-Hydroxycarbamoyl-1-naphthalen-2-ylmethyl-ethyl)-1H-[1,2,3]triazol-4-ylmethyl]-benzamide] | 192.8 to 194 °C | – | – | – | – | –
9 | O=C(C[C@@H](Cc1ccc2ccccc2c1)n1cc(CNC(=O)CCc2ccccc2)nn1)NO [Compound 10, (R)—N-Hydroxy-4-naphthalen-2-yl-3-{4-[(3-phenyl-propionylamino)-methyl]-[1,2,3]triazol-1-yl}-butyramide] | 150 to 151.4 °C | – | – | – | – | –
10 | O=C(C[C@@H](Cc1ccc2ccccc2c1)n1cc(CCC(=O)Nc2ccc(F)c(F)c2)nn1)NO [Compound 81, N-(3,4-difluorophenyl)-3-[1-[3-(hydroxyamino)-1-(2-naphthylmethyl)-3-oxo-propyl]triazol-4-yl]propanamide] | – | 3.5 | 2.3 | 2.3 | 2.5 | –
11 | O=C(C[C@@H](Cc1ccc2ccccc2c1)n1cc(CNS(=O)(=O)c2ccccc2)nn1)NO [Compound 7, (R)-3-[4-(Benzenesulfonylamino-methyl)-[1,2,3]triazol-1-yl]-N-hydroxy-4-naphthalen-2-yl-butyramide] | 137.4 to 138.8 °C | – | – | – | – | –
12 | Cc1ccc(S(=O)(=O)NCc2cn([C@@H](CC(=O)NO)Cc3ccc4ccccc4c3)nn2)cc1 [Compound 5, (R)—N-Hydroxy-4-naphthalen-2-yl-3-{4-[(toluene-4-sulfonylamino)-methyl]-[1,2,3]triazol-1-yl}-butyramide] | 115.8 to 117.2 °C | – | – | – | – | –
